A value given as a limit tells only on which side of the number the result lay.

What is called IC50 is the midpoint of a concentration-inhibition curve. A low value points to higher potency.

This experiment relates to IL-1b. As to the kind of experiment: Mouse BMDM IL-1b Assay. The class given is cell-based. The following applies: Macrophage; mouse bone marrow derived macrophages (C57BL6); 200 ng/mL LPS 3 h, compound 30 min, 5 mM ATP 45 min; IL-1b ELISA of supernatant. Here is the method: Example 20: Mouse BMDM IL-1b Assay
Mouse bone marrow cells from C57BL6 tibia and femur were culture in complete Isocov's Media supplemented with 20 ng/mL MCSF (BMDM media) at a density of 50 million cells/15 cm Petri dish. Fresh media was changed every 3 days, and bone marrow derived macrophages were collected, washed, and counted on day 7. Cells were seeded into 96 well plates at a density of 5×10^4 cells per well in 100 uL of BMDM media and cultured overnight. The cells were stimulated at 37° C. with 200 ng/mL Ultrapure LPS-B5 for 3 hours before pre-diluted compounds were added. 30 minutes after compound addition, 5 mM ATP was added for the secondary stimulation for 45 minutes. After stimulation, the plates were briefly spun down, and 50 uL of supernatant was harvested from each well. ELISA for mouse IL-1b was performed with 1:10 and 1:100 diluted supernatant using pre-coated kits. IL-1b concentrations were calculated based on pre-titrated standards, and compound inhibition IC50 is generated using the Levenberg Marquardt damped lease-square method.
(ELISA stands for enzyme-linked immunosorbent assay.)
In the case of `CO/N=C1/CCCc2oc(S(=O)(=O)NC(=O)Nc3c4c(cc5c3CCC5)CCC4)cc21` [Compound 41, (Z)-N-((1,2,3,5,6,7-hexahydro-s-indacen-4-yl)carbamoyl)-4-(methoxyimino)-4,5,6,7-tetrahydrobenzofuran-2-sulfonamide], the 50% inhibitory concentration (IC50) is 100 to 1000 nM.

`CC(=O)NC1CCCc2oc(S(=O)(=O)NC(=O)Nc3c4c(c(Br)c5c3CCC5)CCC4)cc21` (centres unmarked) [Compound 42, N-(2-(N-((8-bromo-1,2,3,5,6,7-hexahydro-s-indacen-4-yl)carbamoyl)sulfamoyl)-4,5,6,7-tetrahydrobenzofuran-4-yl)acetamide]: the IC50 fell in the range of 100 to 1000 nM.

For `O=C(Nc1c2c(c(Cl)c3c1CCC3)CCC2)NS(=O)(=O)c1cc2c(o1)CCCC2O` (centres unmarked) [Compound 43, N-((8-chloro-1,2,3,5,6,7-hexahydro-s-indacen-4-yl)carbamoyl)-4-hydroxy-4,5,6,7-tetrahydrobenzofuran-2-sulfonamide], the IC50 is < 100 nM.

Regarding `CC1(O)CCCc2oc(S(=O)(=O)NC(=O)Nc3c4c(c(Cl)c5c3CCC5)CCC4)cc21` (centres unmarked) [Compound 44, N-((8-chloro-1,2,3,5,6,7-hexahydro-s-indacen-4-yl)carbamoyl)-4-hydroxy-4-methyl-4,5,6,7-tetrahydrobenzofuran-2-sulfonamide], the 50% inhibitory concentration (IC50) was < 100 nM.

`CCC1(O)CCCc2oc(S(=O)(=O)NC(=O)Nc3c4c(cc5c3CCC5)CCC4)cc21` (centres unmarked) [Compound 45, 4-ethyl-N-((1,2,3,5,6,7-hexahydro-s-indacen-4-yl)carbamoyl)-4-hydroxy-4,5,6,7-tetrahydrobenzofuran-2-sulfonamide]: the IC50 is < 100 nM.

Take `O=C(Nc1c2c(c(F)c3c1CCC3)CCC2)NS(=O)(=O)c1cc2c(o1)CCCC2O` (centres unmarked) [Compound 46, N-((8-fluoro-1,2,3,5,6,7-hexahydro-s-indacen-4-yl)carbamoyl)-4-hydroxy-4,5,6,7-tetrahydrobenzofuran-2-sulfonamide]: the half-maximal inhibitory concentration (IC50) is < 100 nM.

With `CC1(O)CCCc2oc(S(=O)(=O)NC(=O)Nc3c4c(c(F)c5c3CCC5)CCC4)cc21` (centres unmarked) [Compound 47, N-((8-fluoro-1,2,3,5,6,7-hexahydro-s-indacen-4-yl)carbamoyl)-4-hydroxy-4-methyl-4,5,6,7-tetrahydrobenzofuran-2-sulfonamide], the IC50 is < 100 nM.

In the case of `CC1CC(=NO)c2cc(S(=O)(=O)NC(=O)Nc3c4c(cc5c3CCC5)CCC4)oc2C1` (centres unmarked) [Compound 48, N-((1,2,3,5,6,7-hexahydro-s-indacen-4-yl)carbamoyl)-4-(hydroxyimino)-6-methyl-4,5,6,7-tetrahydrobenzofuran-2-sulfonamide], the IC50 lay within 100 to 1000 nM.

In turn, `CC1(C)CC(=NO)c2cc(S(=O)(=O)NC(=O)Nc3c4c(cc5c3CCC5)CCC4)oc2C1` [Compound 49, N-((1,2,3,5,6,7-hexahydro-s-indacen-4-yl)carbamoyl)-4-(hydroxyimino)-6,6-dimethyl-4,5,6,7-tetrahydrobenzofuran-2-sulfonamide] displayed an IC50 of 100 to 1000 nM.

Consider `CC1(C)CCc2oc(S(=O)(=O)NC(=O)Nc3c4c(cc5c3CCC5)CCC4)cc2C1=NO` [Compound 50, N-((1,2,3,5,6,7-hexahydro-s-indacen-4-yl)carbamoyl)-4-(hydroxyimino)-5,5-dimethyl-4,5,6,7-tetrahydrobenzofuran-2-sulfonamide], for which the IC50 was < 100 nM.

Turning to `Cc1c2c(c(NC(=O)NS(=O)(=O)c3cc4c(o3)CCCC4(C)O)c3c1CCC3)CCC2` (centres unmarked) [Compound 51, 4-hydroxy-4-methyl-N-((8-methyl-1,2,3,5,6,7-hexahydro-s-indacen-4-yl)carbamoyl)-4,5,6,7-tetrahydrobenzofuran-2-sulfonamide], the half-inhibitory concentration (IC50) was < 100 nM.

Take `Cc1c2c(c(NC(=O)NS(=O)(=O)c3cc4c(o3)CCCC4O)c3c1CCC3)CCC2` (centres unmarked) [Compound 52, 4-hydroxy-N-((8-methyl-1,2,3,5,6,7-hexahydro-s-indacen-4-yl)carbamoyl)-4,5,6,7-tetrahydrobenzofuran-2-sulfonamide]: the concentration for half-maximal inhibition (IC50) is < 100 nM.

For `CC1(O)CCCc2oc(S(=O)(=O)NC(=O)Nc3c4c(c(C#N)c5c3CCC5)CCC4)cc21` (centres unmarked) [Compound 53, N-((8-cyano-1,2,3,5,6,7-hexahydro-s-indacen-4-yl)carbamoyl)-4-hydroxy-4-methyl-4,5,6,7-tetrahydrobenzofuran-2-sulfonamide], the half-maximal inhibitory concentration (IC50) lay within 100 to 1000 nM.

`N#Cc1c2c(c(NC(=O)NS(=O)(=O)c3cc4c(o3)CCCC4O)c3c1CCC3)CCC2` (centres unmarked) [Compound 54, N-((8-cyano-1,2,3,5,6,7-hexahydro-s-indacen-4-yl)carbamoyl)-4-hydroxy-4,5,6,7-tetrahydrobenzofuran-2-sulfonamide]: the IC50 is 100 to 1000 nM.

With `O=C(Nc1c2c(c(C(F)(F)F)c3c1CCC3)CCC2)NS(=O)(=O)c1cc2c(o1)CCCC2O` (centres unmarked) [Compound 55, 4-hydroxy-N-((8-(trifluoromethyl)-1,2,3,5,6,7-hexahydro-s-indacen-4-yl)carbamoyl)-4,5,6,7-tetrahydrobenzofuran-2-sulfonamide], the concentration for half-maximal inhibition (IC50) is < 100 nM.

Turning to `O=C(Nc1c2c(cc3c1CCC3)CCC2)NS(=O)(=O)c1cc2c(o1)CCCC2(O)C(F)(F)F` (centres unmarked) [Compound 56, N-((1,2,3,5,6,7-hexahydro-s-indacen-4-yl)carbamoyl)-4-hydroxy-4-(trifluoromethyl)-4,5,6,7-tetrahydrobenzofuran-2-sulfonamide], the IC50 is < 100 nM.

In the case of `CN1CCCc2oc(S(=O)(=O)NC(=O)Nc3c4c(cc5c3CCC5)CCC4)cc2C1=O` [Compound 57, N-((1,2,3,5,6,7-hexahydro-s-indacen-4-yl)carbamoyl)-5-methyl-4-oxo-5,6,7,8-tetrahydro-4H-furo[3,2-c]azepine-2-sulfonamide], the half-maximal inhibitory concentration (IC50) was in the range of 100 to 1000 nM.

In turn, `CC1(O)CCCc2oc(S(=O)(=O)NC(=O)Cc3c4c(cc5c3CCC5)CCC4)cc21` (centres unmarked) [Compound 58, 2-(1,2,3,5,6,7-hexahydro-s-indacen-4-yl)-N-((4-hydroxy-4-methyl-4,5,6,7-tetrahydrobenzofuran-2-yl)sulfonyl)acetamide] displayed a 50% inhibitory concentration (IC50) of 100 to 1000 nM.

As to `CC(C)c1cccc(C(C)C)c1NC(=O)NS(=O)(=O)c1cc2c(o1)CCCC2O` (centres unmarked) [Compound 59, N-((2,6-diisopropylphenyl)carbamoyl)-4-hydroxy-4,5,6,7-tetrahydrobenzofuran-2-sulfonamide], the IC50 was 100 to 1000 nM.

On to `CC(C)c1cccc(C(C)C)c1NC(=O)NS(=O)(=O)c1cc2c(o1)CCCC2(C)O` (centres unmarked) [Compound 60, N-((2,6-diisopropylphenyl)carbamoyl)-4-hydroxy-4-methyl-4,5,6,7-tetrahydrobenzofuran-2-sulfonamide], for which the IC50 was in the range of 100 to 1000 nM.

`CC(C)c1cc(Cl)cc(C(C)C)c1NC(=O)NS(=O)(=O)c1cc2c(o1)CCCC2O` (centres unmarked) [Compound 61, N-((4-chloro-2,6-diisopropylphenyl)carbamoyl)-4-hydroxy-4,5,6,7-tetrahydrobenzofuran-2-sulfonamide] came in with an IC50 of 100 to 1000 nM.

With `CC(C)c1cc(Cl)cc(C(C)C)c1NC(=O)NS(=O)(=O)c1cc2c(o1)CCCC2(C)O` (centres unmarked) [Compound 62, N-((4-chloro-2,6-diisopropylphenyl)carbamoyl)-4-hydroxy-4-methyl-4,5,6,7-tetrahydrobenzofuran-2-sulfonamide], the IC50 is < 100 nM.

On to `CC(C)c1cc(F)cc(C(C)C)c1NC(=O)NS(=O)(=O)c1cc2c(o1)CCCC2O` (centres unmarked) [Compound 63, N-((4-fluoro-2,6-diisopropylphenyl)carbamoyl)-4-hydroxy-4,5,6,7-tetrahydrobenzofuran-2-sulfonamide], for which the 50% inhibitory concentration (IC50) was 100 to 1000 nM.

(Values after patent publication US12466800B2, “N-((1,2,3,5,6,7-hexahydro-S-indacen-4-yl)carbamoyl)-4, 5, 6, 7-tetrahydrobenzofuran-2-sulfonamide derivatives and related compounds as NLPR3 modulators for the treatment of multiple sclerosis (MS)” (Zomagen Biosciences Ltd, priority 2019, dated 2025).)
